The subject of one experiment is MDA-MB-231. As to the kind of experiment: Antiproliferative activity against human MDA-MB-231 cells. The class given is functional.
For orientation: GI50 means the concentration giving 50% growth inhibition. The low end stands for more potent growth inhibition, the high end for less potent growth inhibition. `Cc1cc(C)c(NC(=O)NCCCl)c(C)c1` had a 50% growth inhibitory concentration (GI50) of 587 µM.
As to `CCCCCCCCc1ccc(NC(=O)NCCCl)cc1`, it took 48 µM to inhibit growth by half (GI50).
`Cc1cccc(NC(=O)NCCCl)c1` came in with a 50% growth inhibitory concentration (GI50) of 88 µM.
The same measure, in the same setting: for `CCc1cccc(NC(=O)NCCCl)c1` the value was 16 µM; for `CCc1ccccc1NC(=O)NCCCl`, 400 µM; for `CCCCCCCCCCCc1ccc(NC(=O)NCCCl)cc1`, 587 µM.
Compound `O=C(NCCCl)Nc1cccc2ccccc12` came in with a GI50 of 220 µM.

Another experiment has as its system HT-29. As to the kind of experiment: Antiproliferative activity against human HT29 cells. It counts as functional.
On to `CCC(C)c1ccc(NC(=O)N[C@H](C)CCl)cc1` (stereo partly specified), for which it took 8.9 µM to inhibit growth by half (GI50). This counts as single-digit micromolar.
Same read-out and setting: for `CCC(C)c1ccc(NC(=O)N[C@H](CC)CCl)cc1` (stereo partly specified) the value was 56 µM.
`O=C(NCCCl)Nc1ccc2c(c1)-c1ccccc1C2` came in with a GI50 of 13 µM. Compared with the last compound, the GI50 is about 4.3-fold lower.
Same read-out and setting: for `CC(C)(C)c1ccc(NC(=O)NCCCl)cc1` the value was 9.1 µM; for `C[C@@H](CCl)NC(=O)Nc1ccc2c(c1)CCC2`, 100 µM; for `CC[C@@H](CCl)NC(=O)Nc1ccc(I)cc1`, 51 µM.
Take `CCC(C)c1ccc(NC(=O)N[C@@H](CC)CCl)cc1` (stereo partly specified): it took 109 µM to inhibit growth by half (GI50).
The same measure, in the same setting: then `CC(C)c1ccc(NC(=O)N[C@@H](C)CCl)cc1`, with 69 µM.
For `CC[C@H](CCl)NC(=O)Nc1ccc(C(C)(C)C)cc1`, halving of growth (GI50) required 56 µM.
Same read-out and setting: for `CCC(C)c1ccc(NC(=O)N[C@@H](C)CCl)cc1` (stereo partly specified) the value was 54 µM; for `O=C(NCCCl)Nc1ccc2ccccc2c1`, 5.5 µM; for `O=C(NCCCl)Nc1ccc2c(c1)CCC2`, 10 µM.
The same measure, in the same setting: for `C[C@@H](CCl)NC(=O)Nc1ccc2c(c1)-c1ccccc1C2` the value was 28 µM; for `C[C@H](CCl)NC(=O)Nc1ccc(C(C)(C)C)cc1`, 8.9 µM; for `C[C@@H](CCl)NC(=O)Nc1ccc(C(C)(C)C)cc1`, 55 µM.
As for `CC(C)c1ccc(NC(=O)N[C@H](C)CCl)cc1`, the 50% growth inhibitory concentration (GI50) is 1.1 µM.
On the same count and under the same terms, then `C[C@@H](CCl)NC(=O)Nc1ccc2ccccc2c1`, with 181 µM; and `C[C@H](CCl)NC(=O)Nc1ccc2ccccc2c1`, with 4.9 µM.
On the same count and under the same terms, for `C[C@@H](CCl)NC(=O)Nc1ccc(I)cc1` the value was 49 µM; for `O=C(NCCCl)Nc1ccc2[nH]ncc2c1`, 48 µM; for `CCNC(=O)Nc1ccc(C(C)CC)cc1` (stereo unspecified), 132 µM.
On the same count and under the same terms, for `CCc1ccc(NC(=O)NCCCl)cc1` the value was 6.4 µM; for `Cc1cc(C)cc(NC(=O)NCCCl)c1`, 20 µM.
As to `CCNC(=O)Nc1ccc(C(C)(C)C)cc1`, halving of growth (GI50) required 83 µM.
Same read-out and setting: then `CCCCCCc1ccc(NC(=O)NCCCl)cc1`, with 12 µM; and `O=C(NCCCl)Nc1cccc2c1CCCC2`, with 400 µM.
On the same count and under the same terms, then `CNC(=O)Nc1ccc(C(C)(C)C)cc1`, with 400 µM.
On the same count and under the same terms, then `Cc1ccc(NC(=O)NCCCl)cc1C`, with 5.4 µM; and `CC(C)Cc1ccc(NC(=O)NCCCl)cc1`, with 21 µM.
In the case of `CCCNC(=O)Nc1ccc(C(C)CC)cc1` (stereo unspecified), the GI50 turned out to be 133 µM.
The same measure, in the same setting: for `CCCc1ccc(NC(=O)NCCCl)cc1` the value was 23 µM.
`O=C(NCCCl)Nc1ccc(Br)cc1` returned a concentration for 50% growth inhibition (GI50) of 9 µM.
On the same count and under the same terms, then `Cc1ccc(NC(=O)NCCCl)cc1`, with 23 µM.
On the same count and under the same terms, for `CC(C)(C)Cc1ccc(NC(=O)NCCCl)cc1` the value was 36 µM.
Still for that read-out and setting: for `CCCNC(=O)Nc1ccc(C(C)C)cc1` the value was 76 µM; for `CNC(=O)Nc1ccc(C(C)C)cc1`, 400 µM; for `CCC(C)c1ccc(NC(=O)NC)cc1` (stereo unspecified), 400 µM.
In turn, `CCCCCc1ccc(NC(=O)NCCCl)cc1` had a GI50 of 12 µM. This GI50 is about 33-fold lower than that of the compound before.
Compound `CC(C)(C)c1ccc(NC(=O)NCCCCl)cc1` came in with a concentration for 50% growth inhibition (GI50) of 21 µM.
In the case of `CC[C@@H](CCl)NC(=O)Nc1ccc(C(C)(C)C)cc1`, the concentration for 50% growth inhibition (GI50) amounted to 109 µM.
As to `CCNC(=O)Nc1ccc(C(C)C)cc1`, the 50% growth inhibitory concentration (GI50) is 400 µM.
The same measure, in the same setting: then `O=C(NCCCl)Nc1ccc(Cl)cc1`, with 14 µM; and `CC(C)CCc1ccc(NC(=O)NCCCl)cc1`, with 33 µM.
Same read-out and setting: for `CCCNC(=O)Nc1ccc(C(C)(C)C)cc1` the value was 35 µM.
On the same count and under the same terms, for `CCCCc1ccc(NC(=O)NCCCl)cc1` the value was 22 µM.
The compound `CC(C)c1ccc(NC(=O)NCCCl)cc1` gave a GI50 of 5 µM.
Consider `CC[C@H](CCl)NC(=O)Nc1ccc(I)cc1`, for which the GI50 came out at 22 µM.
Same read-out and setting: then `O=C(NCCCl)Nc1ccc(I)cc1`, with 3.9 µM; and `CCC(C)c1ccc(NC(=O)NCCCl)cc1` (stereo unspecified), with 3.6 µM.
As for `CC[C@H](CCl)NC(=O)Nc1ccc(C(C)C)cc1`, it took 30 µM to inhibit growth by half (GI50).
Still for that read-out and setting: for `C[C@H](CCl)NC(=O)Nc1ccc2c(c1)-c1ccccc1C2` the value was 6.6 µM; for `C[C@H](CCl)NC(=O)Nc1ccc(I)cc1`, 0.85 µM; for `CC[C@@H](CCl)NC(=O)Nc1ccc(C(C)C)cc1`, 54 µM.
`C[C@H](CCl)NC(=O)Nc1ccc2c(c1)CCC2` had a 50% growth inhibitory concentration (GI50) of 6.4 µM.

For the origin of these results see ChEMBL document CHEMBL1143982, “A comparative molecular field and comparative molecular similarity indices analyses (CoMFA and CoMSIA) of N-phenyl-N'-(2-chloroethyl)ureas targeting the colchicine-binding site as anticancer agents” (2008).
